Source: patent US20090209527A1, “Methods for Using Rapamycin Analogues in the Treatment of Neurological Disorders” (Wyeth, priority 2008, published 2009)
Where two headings read alike, the source gives them in different places.

Legend:
[1] = system: Mesencephalic dopaminergic neuron cultures; assay: Dopaminergic uptake assay (3H-dopamine uptake after MPP+ exposure); assay type: cell-based, rat; conditions: read-out: EC50 in dopaminergic uptake assays
Experimental: Mesencephalic dopaminergic neuron cultures were prepared as described in Pong et al., J. Neurochem. 69: 986-994, 1997, which is incorporated herein by reference in its entirety. Embryonic day 15 (E15) rat fetuses were collected and dissected in ice-cold phosphate-buffered saline (PBS). The ventral piece of tissue compromising the mesencephalic dopaminergic region was dissected out. Dissected pieces of tissue were pooled together and transferred to an enzymatic dissociation medium containing 20 IU/mL papain in Earle's balanced salt solution (Worthington Biochemical, Freehold, N.J., USA) and incubated for 60 minutes at 37° C. After enzymatic dissociation, the papain solution was aspirated and the tissue mechanically triturated with a fire-polished glass Pasteur pipette in complete medium (equal volumes of minimum essential medium (MEM) and F-12 nutrient mixture (GibcoBRL) supplemented with 0.1 mg/mL apotransferrin and 2.5 μg/mL insulin) containing 2,000 IU/mL DNase and 10 mg/mL ovomucoid protease inhibitor.
For dopamine uptake experiments, single-cell suspensions in complete media were seeded on poly-L-ornithine and laminin coated 24-well plates. The cultures were maintained for seven days prior to experimentation. […]
After 48 hours growth of mesencephalic dopaminergic neuron cultures following MPP+ exposure, high-affinity 3H-dopamine uptake was performed using a modified method described by Prochiantz et al., Nature 293: 570-572, 1981, which is incorporated herein by reference. Cultures were washed with pre-warmed PBS containing 5.6 mM glucose and 1 mM ascorbic acid. Cultures were then incubated for 15 minutes at 37° C. with 50 nM 3H-dopamine (31 Ci/mmol, DuPont-NEN, Wilmington, Del., USA). The cultures were washed twice with buffer and lysed with 0.5N NaOH. The lysate was transferred to a scintillation vial containing Ultima Gold scintillation cocktail and radioactivity was determined with a liquid scintillation counter. Alternatively, culture lysates can be washed twice with buffer, incubated for 2 hours at room temperature with Optiphase Supermix scintillation cocktail (Wallac Scintillation Products, Gaithersburg, Md., USA), and radioactivity measured with a liquid scintillation counter.

[2] = system: cortical neuron cultures; assay: Cortical neuron assay (neurite outgrowth in dissociated cortical neuron cultures); assay type: cell-based, rat; conditions: Rattus norvegicus, Cortical neurone; 72 hours treatment, neurite outgrowth; read-out: EC50 in cortical neuron assays
Experimental: Dissociated cortical neuron cultures were prepared as previously described (Liu et al., Screening of Immunophilin Ligands by Quantitative Analysis of Neurofilament Expression and Neurite Outgrowth in Cultured Neurons and Cells, J. Neurosci. Methods, 2007 Jul. 30; 163(2):310-20).
Briefly, embryonic day 15 rat fetuses were collected and dissected in ice-cold PBS. Dissected cortices were pooled together and transferred to an enzymatic dissociation medium containing papain. After 30 minutes, the tissue was mechanically triturated with a fire-polished glass Pasteur pipette. Single-cell suspensions in complete media were seeded on poly-L-ornithine and laminin coated 96-well plates. After 24 hours, cultures were treated with various concentrations of compound for 72 hours. The cultures were then fixed and stained with an anti-tubulin primary antibody (TUJ-1) and a fluorescent-tagged secondary antibody. Neurite outgrowth was determined by using the Enhanced Neurite Outgrowth (ENO) algorithm with the Cellomics ArrayScan and expressed as average neurite length or total neurite length per cell.

[3] = system: Spinal cord neuron cultures; assay: Spinal cord neuron assay; assay type: cell-based; conditions: Rattus norvegicus, 72 hours treatment, read-out: EC50 in spinal cord neuron assays
Experimental: Spinal cord neuron cultures were prepared from embryonic day 15 (E15) rat embryos (Liu et al., Screening of Immunophilin Ligands by Quantitative Analysis of Neurofilament Expression and Neurite Outgrowth in Cultured Neurons and Cells, J. Neurosci. Methods, 2007 Jul. 30; 163(2):310-20). The embryos were collected and their spinal cords were removed in ice-cold phosphate-buffered saline (PBS) without Ca^2+ and Mg^2+. Dissected pieces of spinal cord tissue were pooled together and transferred to an enzymatic dissociation media containing 20 IU/mL papain in Earle's balanced salt solution (Worthington Biochemical, Freehold, N.J.) and incubated for 30 minutes at 37° C. After enzymatic dissociation, the papain solution was aspirated and the tissue mechanically triturated with a fire-polished Pasteur pipette in complete media [Neurobasal Medium with B-27 supplement (Gibco, Grand Island, N.Y.), 100 IU/mL penicillin, 100 µg/mL streptomycin, […] aphidicolin, 0.5 mM glutamate] containing 2,000 IU/mL DNase and 10 mg/mL ovomucoid protease inhibitor. Single-cell suspensions in complete media were plated on pre-coated poly-L-ornithine/laminin 96-well plates (Becton-Dickinson, Bedford, Mass.) at a density of 1.0×10^4 cells/well. Spinal cord neurons were maintained for 24 hours then exposed to vehicle or various concentrations of compound for 72 hours.

| EC50 ([1]; Rattus norvegicus, Neuron) [nM] | EC50 [3] [nM] | EC50 [1] [nM] | Compound | EC50 [2] [nM] |
| --- | --- | --- | --- | --- |
| < 1000 | < 1000 | – | CO[C@H]1C[C@@H]2CC[C@@H](C)[C@@](O)(O2)C(=O)C(=O)N2CCCC[C@H]2C(=O)O[C@H]([C@H](C)C[C@@H]2CC[C@@H](OC(=O)C(C)(C)Cc3ccccn3)[C@H](OC)C2)CC(=O)[C@H](C)/C=C(\C)[C@@H](O)[C@@H](OC)C(=O)[C@H](C)C[C@H](C)C2C=CC(/C=C/1C)ON2c1ccccc1 [Example 6, 9,27-dihydroxy-3-{-2-[4-hydroxy-3-methoxycyclohexyl]-1-methylethyl}-10,21-dimethoxy-6,8,12,14,20,26-hexamethyl-37-phenyl-4,9,10,12,13,14,15,18,21,22,23,24,25,26,27,32,33,34,34a-nonadecahydro-3H-23,27-epoxy-18,15-(epoxyimino) pyrido[2,1-c][1,4]oxazacyclohentriacontine-1,5,11,28,29(6H,31H)-pentone ester with-2,2-dimethyl-3′-(pyridin-2-yl)-propionic acid] | – |
| > 1000 | – | – | CO[C@H]1C[C@@H]2CC[C@@H](C)[C@@](O)(O2)C(=O)C(=O)N2CCCC[C@H]2C(=O)O[C@H]([C@H](C)C[C@@H]2CC[C@@H](O)[C@H](OC)C2)CC(=O)[C@H](C)/C=C(\C)[C@@H](O)[C@@H](OC)C(=O)[C@H](C)C[C@H](C)/C=C/C=C/C=C/1C [rapamycin] | > 1000 |
| – | – | < 1000 | Rapamycin phenyltriazolinedione | – |

The next lines start with the compound.

| Compound | EC50 ([1]; Rattus norvegicus, Neuron) [nM] | EC50 [3] [nM] | EC50 [1] [nM] | EC50 [2] [nM] |
| --- | --- | --- | --- | --- |
| CO[C@H]1C[C@@H]2CC[C@@H](C)[C@@](O)(O2)C(=O)C(=O)N2CCCC[C@H]2C(=O)O[C@H]([C@H](C)C[C@@H]2CC[C@@H](OC(=O)C(C)(CO)CO)[C@H](OC)C2)CC(=O)[C@H](C)/C=C(\C)[C@@H](O)[C@@H](OC)C(=O)[C@H](C)C[C@H](C)/C=C/C=C/C=C/1C [CCI-779, reference compound] | > 1000 | – | – | > 1000 |
| CO[C@H]1C[C@@H]2CC[C@@H](C)[C@@](O)(O2)C(=O)C(=O)N2CCCC[C@H]2C(=O)O[C@H]([C@H](C)C[C@@H]2CC[C@@H](O)[C@H](OC)C2)CC(=O)[C@H](C)/C=C(\C)[C@@H](O)[C@@H](OC)C(=O)[C@H](C)C[C@H](C)[C@@H]2C=C[C@H](/C=C/1C)ON2c1ccccc1 [Example 1, 9,27-dihydroxy-3-{2-[4-hydroxy-3-methoxycyclohexyl]-1-methylethyl}-10,21-dimethoxy-6,8,12,14,20,26-hexamethyl-37-phenyl-4,9,10,12,13,14,15,18,21,22,23,24,25,26,27,32,33,34,34a-nonadecahydro-3H-23,27-epoxy-18,15-(epoxyimino)pyrido[2,1-c][1,4]oxazacyclohentriacontine-1,5,11,28,29(6H,31H)-pentone] | < 1000 | < 1000 | – | < 1000 |
| CO[C@H]1C[C@@H]2CC[C@@H](C)[C@@](O)(O2)C(=O)C(=O)N2CCCC[C@H]2C(=O)O[C@H]([C@H](C)C[C@@H]2CC[C@@H](O)[C@H](OC)C2)CC(=O)[C@H](C)/C=C(\C)[C@@H](O)[C@@H](OC)C(=O)[C@H](C)C[C@H](C)C2C=CC(/C=C/1C)ON2c1c(Cl)cccc1Cl [Example 3] | – | < 1000 | – | < 1000 |
